Measurements published in the supplement of paper PMC10307832.

How the values were obtained:
Experiment in all cases: relative viability (nuclei count vs DMSO), 5 days (fraction); higher = more cells survive
PC-14 = system: PC-14
Summary of the method: (§1)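 Lung cancer cell lines in 1536-well plates got either a single drug or a fixed anchor-drug dose together with five library-drug doses (not always all listed) in √10 steps, by pin tool, on the day after seeding. Nuclei were counted after 5 days, and relative viability is the treated-to-vehicle ratio of nuclei counts. Values are medians of duplicate plates.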

NCI-H441 = system: NCI-H441
Summary of the method: as §1

LU99A = system: LU99A
Summary of the method: as §1

COR-L23 = system: COR-L23
Summary of the method: as §1

HCC-366 = system: HCC-366
Summary of the method: as §1

NCI-H1437 = system: NCI-H1437
Summary of the method: as §1

NCI-H2009 = system: NCI-H2009
Summary of the method: as §1

COR-L 105 = system: COR-L 105
Summary of the method: as §1

NCI-H1666 = system: NCI-H1666
Summary of the method: as §1

NCI-H1650 = system: NCI-H1650
Summary of the method: as §1

EKVX = system: EKVX
Summary of the method: as §1

BEN = system: BEN
Summary of the method: as §1

NCI-H727 = system: NCI-H727
Summary of the method: as §1

LK-2 = system: LK-2
Summary of the method: as §1

HARA = system: HARA
Summary of the method: as §1

NCI-H2023 = system: NCI-H2023
Summary of the method: as §1

201T = system: 201T
Summary of the method: as §1

NCI-H838 = system: NCI-H838
Summary of the method: as §1

NCI-H3122 = system: NCI-H3122
Summary of the method: as §1

NCI-H2170 = system: NCI-H2170
Summary of the method: as §1

CAL-12T = system: CAL-12T
Summary of the method: as §1

SMILES: C[C@@H]1CN(CC(=O)Nc2ccc3c(c2)Cc2cccc(-c4cc(=O)cc(N5CCOCC5)o4)c2S3)C[C@H](C)O1 + CC1(C)CCC(c2ccc(Cl)cc2)=C(CN2CCN(c3ccc(C(=O)NS(=O)(=O)c4ccc(N[C@H](CCN5CCOCC5)CSc5ccccc5)c(S(=O)(=O)C(F)(F)F)c4)cc3)CC2)C1 [Navitoclax] (partner 0.5 µM)
- relative viability (PC-14; first compound 0.04 µM): 1.04
- relative viability (PC-14; first compound 0.1265 µM): 0.987
- relative viability (PC-14; first compound 0.4 µM): 1.01
- relative viability (PC-14; first compound 4 µM): 0.797
- relative viability (NCI-H441; first compound 0.04 µM): 0.427
- relative viability (NCI-H441; first compound 0.4 µM): 0.576
- relative viability (NCI-H441; first compound 4 µM): 0.318
- relative viability (LU99A; first compound 0.04 µM): 0.856
- relative viability (LU99A; first compound 0.1265 µM): 0.758
- relative viability (LU99A; first compound 0.4 µM): 0.926
- relative viability (LU99A; first compound 4 µM): 0.821
- relative viability (COR-L23; first compound 0.04 µM): 1.25
- relative viability (COR-L23; first compound 0.1265 µM): 0.985
- relative viability (COR-L23; first compound 0.4 µM): 1.17
- relative viability (COR-L23; first compound 4 µM): 0.962
- relative viability (HCC-366; first compound 0.04 µM): 1.04
- relative viability (HCC-366; first compound 0.1265 µM): 1.08
- relative viability (HCC-366; first compound 0.4 µM): 1.15
- relative viability (HCC-366; first compound 4 µM): 0.944
- relative viability (NCI-H1437; first compound 0.04 µM): 1.14
- relative viability (NCI-H1437; first compound 0.1265 µM): 1.1
- relative viability (NCI-H1437; first compound 0.4 µM): 1.13
- relative viability (NCI-H1437; first compound 4 µM): 0.882
- relative viability (NCI-H2009; first compound 0.04 µM): 1.17
- relative viability (NCI-H2009; first compound 0.1265 µM): 1.1
- relative viability (NCI-H2009; first compound 0.4 µM): 1.15
- relative viability (NCI-H2009; first compound 4 µM): 0.915
- relative viability (COR-L 105; first compound 0.04 µM): 1.01
- relative viability (COR-L 105; first compound 0.1265 µM): 0.801
- relative viability (COR-L 105; first compound 0.4 µM): 0.728
- relative viability (COR-L 105; first compound 4 µM): 0.686
- relative viability (NCI-H1666; first compound 0.04 µM): 1.14
- relative viability (NCI-H1666; first compound 0.1265 µM): 1.12
- relative viability (NCI-H1666; first compound 0.4 µM): 0.862
- relative viability (NCI-H1666; first compound 4 µM): 0.781
- relative viability (NCI-H1650; first compound 0.04 µM): 1.25
- relative viability (NCI-H1650; first compound 0.1265 µM): 1.09
- relative viability (NCI-H1650; first compound 0.4 µM): 1.38
- relative viability (NCI-H1650; first compound 4 µM): 0.969
- relative viability (EKVX; first compound 0.04 µM): 0.899
- relative viability (EKVX; first compound 0.1265 µM): 0.894
- relative viability (EKVX; first compound 0.4 µM): 0.862
- relative viability (EKVX; first compound 4 µM): 0.812
- relative viability (BEN; first compound 0.04 µM): 0.0641
- relative viability (BEN; first compound 0.1265 µM): 0.0514
- relative viability (BEN; first compound 0.4 µM): 0.0961
- relative viability (BEN; first compound 4 µM): 0.0488
- relative viability (NCI-H727; first compound 0.04 µM): 0.482
- relative viability (NCI-H727; first compound 0.1265 µM): 0.494
- relative viability (NCI-H727; first compound 0.4 µM): 0.412
- relative viability (NCI-H727; first compound 4 µM): 0.381
- relative viability (LK-2; first compound 0.1265 µM): 0.83
- relative viability (LK-2; first compound 0.4 µM): 0.831
- relative viability (LK-2; first compound 4 µM): 1.02
- relative viability (HARA; first compound 0.04 µM): 1.2
- relative viability (HARA; first compound 0.1265 µM): 1.12
- relative viability (HARA; first compound 0.4 µM): 1.21
- relative viability (HARA; first compound 4 µM): 1.14
- relative viability (NCI-H2023; first compound 0.04 µM): 0.993
- relative viability (NCI-H2023; first compound 0.1265 µM): 0.921
- relative viability (NCI-H2023; first compound 0.4 µM): 0.923
- relative viability (NCI-H2023; first compound 4 µM): 0.796
- relative viability (201T; first compound 0.04 µM): 1.21
- relative viability (201T; first compound 0.1265 µM): 1.2
- relative viability (201T; first compound 0.4 µM): 1.19
- relative viability (201T; first compound 4 µM): 1.14
- relative viability (NCI-H838; first compound 0.04 µM): 1.17
- relative viability (NCI-H838; first compound 0.1265 µM): 1.16
- relative viability (NCI-H838; first compound 0.4 µM): 1.07
- relative viability (NCI-H838; first compound 4 µM): 0.896
- relative viability (NCI-H3122; first compound 0.04 µM): 1.05
- relative viability (NCI-H3122; first compound 0.1265 µM): 1.03
- relative viability (NCI-H3122; first compound 0.4 µM): 0.965
- relative viability (NCI-H3122; first compound 4 µM): 0.95
- relative viability (NCI-H2170; first compound 0.1265 µM): 0.617
- relative viability (NCI-H2170; first compound 0.4 µM): 0.471
- relative viability (NCI-H2170; first compound 4 µM): 0.475
- relative viability (CAL-12T; first compound 0.04 µM): 1.42
- relative viability (CAL-12T; first compound 0.1265 µM): 1.11
- relative viability (CAL-12T; first compound 0.4 µM): 1.07
- relative viability (CAL-12T; first compound 4 µM): 0.652
